Results published in PubChem BioAssay AID1508591.

conditions: rat; liver microsomes; pH 7.4; 15.0 min; 1.0 µM

Structure (SMILES) | half-life [min]
O=C(NC1CC1)c1ccc(CSCc2ccccc2Cl)o1 | 1.74
C[C@]1(CO)CN(c2cc(C(=O)Nc3ccc4c(c3)-c3c(c(C(N)=O)nn3-c3ccc(F)cc3)CC4)c(Cl)cn2)C[C@@]1(C)CO | 23.2
c1ccc(Nc2cc3c(cn2)CN(Cc2cccs2)CCN3)cc1 | 1.77
Cc1nn2c(c1-c1ccccc1OCc1ccccc1)N(C(=O)Cc1ccc3c(c1)OCO3)CCC2 | 1.41
Cc1ccc(C(=O)Nc2ccc(CN3CCN(C)CC3)c(C(F)(F)F)c2)cc1C#Cc1cnc2cccnn12 | > 30
O=[S+]([O-])(Nc1ccc(N2CCNCC2)cc1)c1ccc(NCc2ccc(Br)cc2O)cc1 | > 30
COc1ccccc1NC(=O)C1=C(C)Nc2c(C(=O)Nc3cccc(C)c3)cnn2C1c1ccccc1Cl (stereo not drawn) | 2.98
CCOc1ccc(CNC(=O)CCCn2nc(C)c3c(C)n(-c4ccc(C)cc4)nc3c2=O)cc1 | 3.01
C[S+](=O)([O-])c1ccc(-c2nc(C(=O)N3CCOCC3)n3ccncc23)cc1 | > 30
COc1ccnc(NC(=S)N2CCN(c3ccc(Cl)c(Cl)c3)CC2)c1 | 20
O=C1CCCC2=C1C(c1ccccc1Br)N=C(Nc1nc3ccccc3o1)N2 (stereo not drawn) | 9.6
Fc1cc(Nc2nc(-c3ccncc3)nc3ccccc23)ccc1N1CCNCC1 | > 30
CN(C(=O)COC(=O)c1csc(NCc2ccccc2)n1)c1ccccc1 | 1.4
CCOc1ccc(CCNC(=O)c2cc3sccc3n2Cc2ccc(F)cc2F)cc1OCC | 1.8
CCCCc1ccc(NC(=O)c2ccc3c(c2)N(S(C)(=O)=O)CC3)cc1 | 4.38
CCOc1ccc(CCNC(=O)c2ccc3ccccc3n2)cc1OCC | 1.7
CNC(=O)c1ccccc1Nc1nc(Nc2ccc(N3CCOCC3)cc2OC)ncc1Cl | > 30
Cc1ccccc1C(C(=O)NC1CCCC1)N(C(=O)Cn1cnc2ccccc21)c1cccc(F)c1 (stereo not drawn) | 1.67
CCN(c1ccccc1)S(=O)(=O)c1c(C)nc2scc(C)n2c1=O | 1.7
COc1ccc(CN2CCNc3cc(Nc4ccccc4)ncc3C2)cn1 | 10
Cc1ccc(NC(=O)c2ccncc2NS(=O)(=O)c2ccc(C)cc2)cc1 | 2.9
COc1ccccc1NS(=O)(=O)c1cccc(NC(=O)c2[nH]c(C)c(C(C)=O)c2C)c1 | 4.7
CCOc1ccc(NC(=O)CSC2=Nc3ccccc3C3=NC(CC(=O)NCc4cccs4)C(=O)N23)cc1 (stereo not drawn) | 4.16
Cc1sc(NC(=O)Cc2ccc3c(c2)OCO3)nc1-c1ccc2c(c1)CCN2C(=O)c1ccccc1F | 20
COC(=O)[C@@H]1C[C@H](OC(C)=O)C(=O)[C@H]2[C@@]1(C)CCC1C(=O)O[C@H](c3ccoc3)C[C@@]12C (stereo partly drawn) | 9.8
N#Cc1ccc(-c2csc(N3CCC(C(N)=O)CC3)n2)cc1 | 16.2

Structure (SMILES) | half-life [min]
Cc1ccnc(NC(=S)N2CCN(c3ccc(Cl)cc3Cl)CC2)c1 | > 30
CCOc1ccc(CCNC(=O)c2cc3ccccc3n2Cc2cc(C)cc(C)n2)cc1OCC | 1.7
CCOc1ccc(-c2cn3c(n2)sc2cc(C(=O)NCCCN(CC)CC)ccc23)cc1 | > 30
Cc1ccc(NS(=O)(=O)c2cc3c(cc2N[C@H](C)CO)NC(=O)CC3)cc1C | 1.71
COc1ccc2[nH]c3c(c2c1)CCNC31CCN(S(=O)(=O)c2c(C)noc2C)CC1 | > 30
CCCN(C(=O)c1sc2nc3n(c(=O)c2c1C)CCCC3)c1ccccc1C | 1.36
COc1cc(Cl)ccc1C(=O)Nc1nc(-c2ccccc2)cs1 | 14
Nc1c(-c2ccccc2)cnc2c(-c3ccccc3)cnn12 | > 30
CCC(CC)c1cc([C@H]2CN3CC[C@H]2C[C@@H]3CNC(=O)Cc2cccs2)nc(-c2ccncc2)n1 | 2.78
O=C(O)c1ccnc2cc(C(OCC3CCC(F)(F)CC3)c3ccccc3Cl)[nH]c12 (stereo not drawn) | > 30
O=C(Nc1nc(-c2ccccc2)cs1)c1ccncc1NS(=O)(=O)c1ccccc1F | 7
CCCCCCCC/C=C\CCCCCCCC(=O)NCCO | 2.33
Cc1ccc(-c2cc(C(=O)Nc3ccc(S(N)(=O)=O)cc3)c3ccccc3n2)cc1C | > 30
Oc1ccc(CNc2cccc(F)c2)c2cccnc12 | 4.1
Cc1ccc2oc(NC3=NC4(CCCC4)C4=C(CCCC4=O)N3)nc2c1 | 2.7
COC(=O)[C@H](NC(=O)c1cc(-c2ccccc2)nc2ccccc12)c1ccccc1 | 11
CC(C)(N)C(=O)N[C@H](COCc1ccccc1)C(=O)N1CCC2(CC1)CN(S(C)(=O)=O)c1ccccc12 | 4.99
COc1ccc(OC)c(C(=O)Nc2nc(-c3ccccc3)cs2)c1 | 20
COc1cccc(CNc2ccc(S(=O)(=O)Nc3nccs3)cc2)c1 | 15
COc1c(NS(=O)(=O)c2ccc(C)cc2)cccc1C(=O)Nc1nc(-c2ccccc2)cs1 | 9.7
Oc1ccc(NCc2ccccc2OCc2ccccc2Cl)cc1 | 2.03
O=[N+]([O-])c1cccc(CNc2ccc(S(=O)(=O)Nc3nccs3)cc2)c1O | > 30
Cc1ccc(NC(=O)c2cc(-c3ccc(C)o3)nc3ccccc23)nc1 | 8.3
Cc1ccc2c(c1)[nH]c1c(N3CCN(Cc4ccccc4)CC3)ncnc12 | 7.49
Cc1ccc2cccc(NC(=O)c3ccc(OC(C)C)cc3)c2n1 | 17.9
Fc1ccc(Oc2nc(-c3ccncc3)nc3ccccc23)cc1F | 15

Structure (SMILES) | half-life [min]
Clc1ccc(C2=Nn3c(nnc3-c3ccncc3)SC2)cc1 | 9.1
Cn1c2cc(S(C)=O)sc2c2cnn(Cc3cccc(N)c3)c(=O)c21 (stereo not drawn) | > 30
NC(=O)C1CCN(c2nc(-c3ccccc3)cs2)CC1 | 3.88
Oc1ccccc1CN1CCNc2cc(Nc3ccccc3)ncc2C1 | 1.79
Fc1cc(Nc2nc(-c3ccncc3)nc3ccccc23)ccc1-n1cncn1 | 13
O=C1CCCC2=C1C1(CCCC1)N=C(Nc1nc3cc(Cl)ccc3o1)N2 | 2.6
OCCNc1ncnc2c1ncn2[C@@H]1O[C@@H](CO)[C@H](O)[C@@H]1O | > 30
CCOC(=O)C1CCN(c2ncnc3c2c(-c2ccccc2)cn3-c2ccccc2)CC1 | 1.69
Nc1ncnc(N2CCc3ccccc32)c1[N+](=O)[O-] | 8.6
CC[C@@H](CO)NC(=O)[C@@H]1C=C2c3cccc4c3c(cn4C)C[C@H]2N(C)C1 | > 30
Cn1c(=O)c2cc(C(=O)NCCCN3CCN(c4ccccc4F)CC3)sc2c2ccccc21 | 1.97
NC(=O)C1CCN(c2ncnc(-c3ccc4c(c3)OCCCO4)n2)CC1 | 17.3
Cc1ccc(-c2c(CN3CCN(c4cccc(C(F)(F)F)c4)CC3)csc2C)cc1 | 18.5
COCCCNC(=O)c1cc2cc(S(=O)(=O)N(C)C)ccc2n1C | 25
COc1ccc(-c2ccc3nc(-c4cc(F)cc(F)c4F)oc3c2)c(OC)c1OC | > 30
Fc1ccc(-c2nc(-c3ccncc3)nc3ccccc23)cc1F | 20
CCOc1ccc(/C=C/c2nc3ccccc3n2S(=O)(=O)c2ccc(Br)cc2)cc1 | > 30
NC(=O)N1CCN(c2nc(-c3ccc(Br)cc3)cs2)CC1 | > 30
CN(C(=O)c1cn2c(-c3ccc(C(F)(F)F)cc3)cnc2cn1)c1ccc(C#N)cc1 | > 30
CCNc1oc(-c2cccc3ccccc23)nc1C#N | 13
Cc1ccc(/C=C/c2nc3ccccc3n2S(=O)(=O)c2ccc(Br)cc2)cc1 | 28.6
COc1cc(NC(=O)c2nc3ccccc3n(C)c2=O)cc(OC)c1OC | > 30
O=C(CCc1ccccc1)Nc1ccc(S(=O)(=O)Nc2nccs2)cc1 | > 30
N#C/C(=C\c1ccc(Sc2ccc(Cl)cc2)o1)c1nc2ccccc2[nH]1 | 7.56
COc1cc(C(=S)N2CCN(CCO)CC2)ccc1OCc1ccc(C)cc1 | 3.2
O=C(c1ccccc1)N1CCC(c2nn(-c3ccc(F)cc3)c(=O)[nH]2)CC1 | > 30

Structure (SMILES) | half-life [min]
Cc1ccc(C)c(CN2CCC(CNC(=O)Nc3ccc(Br)cc3F)CC2)c1 | 3.58
CC(=O)N1CCc2cc(S(=O)(=O)NCCC3=CCCCC3)ccc21 | 1.3
O=C(Nc1nc(-c2ccccc2)cs1)c1ccncc1NS(=O)(=O)c1cccnc1 | 20
CC(C)n1cc(-c2ccc3c(c2)N(C)CC3)c2c(NS(=O)(=O)c3ccn(C)n3)ccnc21 | 1.07
O=c1c2ccccc2nc2n1CCC2 | > 30
O=C1C(SCCO)=C(SCCO)C(=O)c2ccccc21 | > 30
Cc1ccc(S(=O)(=O)c2cnc(SC(C)C(=O)Nc3ccccc3)[nH]c2=O)cc1 (stereo not drawn) | 10.7
CN(C(=O)CNC(=O)c1cc(F)ccc1OCC(=O)Nc1ccc(I)cc1)c1ccc(F)cc1 | 1.74
Nc1nc2c(s1)C(c1ccc(Br)cc1)CC(=O)N2 (stereo not drawn) | 23.8
COc1cccc(CNc2ccc(S(=O)(=O)Nc3nccs3)cc2)c1O | > 30
CC(=O)NC(c1cccs1)c1cc(Br)c2cccnc2c1O (stereo not drawn) | 5.21
Cc1nc2nc(NC(=O)c3ccc(C(C)(C)C)cc3)[nH]n2c(=O)c1Cl | 21
COc1ccc(NC(=O)c2c(C)c(C(C)=O)c(C)n2C)cc1S(=O)(=O)Nc1ccc(Br)cc1 | 5.9
CN(C)c1cccc(-c2cnc(N3CCC(C(N)=O)CC3)nc2)c1 | 16.8
CCOc1ccccc1N(CC(=O)Nc1cc(OC)ccc1OC)S(=O)(=O)c1ccccc1 | 1.38
O=C(C1CCN(c2nc(-c3ccc(Br)cc3)cs2)CC1)N1CCOCC1 | > 30
Cn1c(C(=O)NCCc2ccccn2)nc2nc(-c3ccccc3)c(Cl)cc21 | 7.82
Cc1ccc(S(=O)(=O)Nc2nc3ccc(C)cc3nc2Nc2ccc3c(c2)OCO3)cc1 | > 30
COc1ccc(-c2ccc3ncc(Nc4ccncc4)n3n2)cc1OC | 23
O=C(Nc1cccc(S(=O)(=O)C(F)(F)F)c1)c1ccccc1NC(=O)c1ccccc1OCC(F)(F)F | > 30
COC(=O)c1ccc2c(C(=Nc3ccc(N(C)C(=O)CN4CCN(C)CC4)cc3)c3ccccc3)c(O)[nH]c2c1 | > 30
CCc1ccc(-n2c(=O)c3cccnc3n2CC(=O)Nc2cc(OC)ccc2OC)cc1 | 1
Fc1ccc(Nc2nc(-c3ccnc4ccccc34)nc3ccccc23)cc1F | 27
Cc1ccc(S(=O)(=O)Nc2cnccc2C(=O)Nc2nc(-c3ccc(F)cc3)cs2)cc1 | > 30
COc1ccccc1C(=O)Nc1ccccc1C(=O)Nc1cccc(S(=O)(=O)C(F)(F)F)c1 | > 30
